Source: the supplement of paper PMC10307832

What was measured:
Experiment in all cases: relative viability (nuclei count vs DMSO), 5 days (fraction); higher = more cells survive
[1] = compound: COC1=CC=C(C=C1)CN2C=CC3=C2C=C(C=C3)C(=O)NO
Outline: (§1)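 Hoechst staining, done together with fixation and permeabilisation, marked nuclei for 4× imaging and MetaXpress counting. This followed 5 days without medium change after lung cancer cell lines, kept overnight at 37 °C in 1536-well plates, were pinned with five library-drug doses (not always all listed) spaced by √10 on vehicle-anchored plates. Viability is the ratio of treated-well to vehicle-well nuclei, expressed as a median across plates. Plates passed only at control CV below 25% with at least one doubling.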

Veliparib = compound: C[C@]1(c2nc3c(C(N)=O)cccc3[nH]2)CCCN1 [Veliparib]
Outline: as §1

Veliparib + Tozasertib = compound: C[C@]1(c2nc3c(C(N)=O)cccc3[nH]2)CCCN1 [Veliparib] + Cc1cc(Nc2cc(N3CCN(C)CC3)nc(Sc3ccc(NC(=O)C4CC4)cc3)n2)n[nH]1 [Tozasertib] (partner 0.1 µM)
Outline: (§2)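 Relative viability divides the nuclei count in treated wells by that in vehicle wells. Lung cancer cell lines were seeded in 1536-well plates, dosed by pin tool the next day, and fixed and stained after 5 days in one step with final 0.05% Triton X-100, 1% formaldehyde and 1 ug/ml Hoechst. Dosing was a single drug or a fixed anchor-drug dose plus five library-drug doses (not always all listed) in √10 steps, and values are medians of duplicate plates imaged at 4×.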

[2] = compound: COC1=CC=C(C=C1)CN2C=CC3=C2C=C(C=C3)C(=O)NO + CC1(C)CCC(c2ccc(Cl)cc2)=C(CN2CCN(c3ccc(C(=O)NS(=O)(=O)c4ccc(N[C@H](CCN5CCOCC5)CSc5ccccc5)c(S(=O)(=O)C(F)(F)F)c4)cc3)CC2)C1 [Navitoclax] (partner 0.5 µM)
Outline: as §2

Cell Line: SW 1573
- relative viability ([1]; 0.253 µM): 1.05
- relative viability ([1]; 0.8 µM): 1.09
- relative viability ([1]; 2.53 µM): 1.06
- relative viability ([1]; 8 µM): 0.759
- relative viability (Veliparib; 0.02 µM): 0.857
- relative viability (Veliparib; 0.06325 µM): 0.978
- relative viability (Veliparib; 0.2 µM): 0.917
- relative viability (Veliparib; 0.6325 µM): 0.885
- relative viability (Veliparib; 2 µM): 0.922
- relative viability (Veliparib + Tozasertib; first compound 0.06325 µM): 0.175
- relative viability (Veliparib + Tozasertib; first compound 0.2 µM): 0.17
- relative viability (Veliparib + Tozasertib; first compound 0.6325 µM): 0.204
- relative viability (Veliparib + Tozasertib; first compound 2 µM): 0.175
- relative viability ([2]; first compound 0.253 µM): 0.943
- relative viability ([2]; first compound 0.8 µM): 1.19
- relative viability ([2]; first compound 2.53 µM): 0.961
- relative viability ([2]; first compound 8 µM): 0.946
